From ChEMBL document CHEMBL1153330, “Biochemical basis for differences in metabolism-dependent genotoxicity by two diazinylpiperazine-based 5-HT2C receptor agonists” (Bioorg Med Chem Lett, 2009)

What was measured:
[1] = Metabolic stability in human liver microsomes in presence of CYP1A2 inhibitor furafylline; type: ADME, Microsome; settings: with furafylline (CYP1A2 inhibitor), concentration not stated
[2] = Metabolic stability in human liver microsomes; type: ADME, Microsome
[3] = tested on: Salmonella typhimurium; assay: Toxic mutagenic effect in Salmonella Typhimurium TA1537 assessed as increase in reverse mutants at 0.63 mg/plate segment in presence of liver S9 fraction and NADPH by reverse mutation assay relative to untreated control; type: toxicity, organism-based; settings: salmonella enterica subsp. enterica serovar typhimurium
[4] = Metabolic stability in human liver microsomes in presence of CYP3A4 inhibitor ketoconazole; type: ADME, Microsome; settings: with ketoconazole (CYP3A4 inhibitor), concentration not stated
[5] = Metabolic stability in aroclor 1254-induced rat liver S9 fraction at 1 uM in presence of NADPH; type: ADME, subcellular
[6] = tested on: Salmonella typhimurium; assay: Toxic mutagenic effect in Salmonella Typhimurium TA100 assessed as increase in reverse mutants at 0.63 mg/plate segment in presence of liver S9 fraction and NADPH by reverse mutation assay relative to untreated control; type: toxicity, organism-based; settings: salmonella enterica subsp. enterica serovar typhimurium
[7] = molecular target: Cytochrome P450 3A4 (Homo sapiens, UniProt P08684); assay: Inhibition of CYP3A4 in human liver microsomes; type: ADME, Microsome
Cytochrome P450 3A4, sequence (P08684 whole entry): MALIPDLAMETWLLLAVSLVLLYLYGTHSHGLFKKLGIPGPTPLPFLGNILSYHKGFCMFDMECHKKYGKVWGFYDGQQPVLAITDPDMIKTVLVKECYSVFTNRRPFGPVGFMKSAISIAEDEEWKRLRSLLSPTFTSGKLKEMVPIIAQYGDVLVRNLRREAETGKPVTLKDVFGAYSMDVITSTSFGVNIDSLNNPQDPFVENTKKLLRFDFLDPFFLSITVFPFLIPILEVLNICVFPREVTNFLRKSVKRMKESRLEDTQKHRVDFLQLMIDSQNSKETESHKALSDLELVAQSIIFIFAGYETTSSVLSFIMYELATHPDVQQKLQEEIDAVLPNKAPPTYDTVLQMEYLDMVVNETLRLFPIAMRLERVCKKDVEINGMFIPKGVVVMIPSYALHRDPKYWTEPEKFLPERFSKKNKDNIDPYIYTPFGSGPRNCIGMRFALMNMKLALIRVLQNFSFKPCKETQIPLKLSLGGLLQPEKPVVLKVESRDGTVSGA

[8] = tested on: Salmonella typhimurium; assay: Toxic mutagenic effect in Salmonella Typhimurium TA1535 assessed as increase in reverse mutants at 5 mg/plate segment after 72 hrs at 37 degC by reverse mutation assay relative to untreated control; type: toxicity, organism-based; settings: salmonella enterica subsp. enterica serovar typhimurium
[9] = tested on: Salmonella typhimurium; assay: Toxic mutagenic effect in Salmonella Typhimurium TA98 assessed as increase in reverse mutants at 5 mg/plate segment after 72 hrs at 37 degC by reverse mutation assay relative to untreated control; type: toxicity, organism-based; settings: salmonella enterica subsp. enterica serovar typhimurium
[10] = tested on: Salmonella typhimurium; assay: Toxic mutagenic effect in Salmonella Typhimurium TA100 assessed as increase in reverse mutants at 5 mg/plate segment after 72 hrs at 37 degC by reverse mutation assay relative to untreated control; type: toxicity, organism-based; settings: salmonella enterica subsp. enterica serovar typhimurium
[11] = tested on: Salmonella typhimurium; assay: Toxic mutagenic effect in Salmonella Typhimurium TA1537 assessed as increase in reverse mutants at 5 mg/plate segment after 72 hrs at 37 degC by reverse mutation assay relative to untreated control; type: toxicity, organism-based; settings: salmonella enterica subsp. enterica serovar typhimurium
[12] = tested on: Salmonella typhimurium; assay: Toxic mutagenic effect in Salmonella Typhimurium TA98 assessed as increase in reverse mutants at 5 mg/plate segment after 72 hrs at 37 degC in presence of aroclor 1254-induced rat liver S9 fraction by reverse mutation assay relative to untreated control; type: toxicity, organism-based; settings: salmonella enterica subsp. enterica serovar typhimurium, s9, 72 h
[13] = tested on: Salmonella typhimurium; assay: Toxic mutagenic effect in Salmonella Typhimurium TA1537 assessed as increase in reverse mutants at 5 mg/plate segment after 72 hrs at 37 degC in presence of aroclor 1254-induced rat liver S9 fraction by reverse mutation assay relative to untreated control; type: toxicity, organism-based; settings: salmonella enterica subsp. enterica serovar typhimurium, s9, 72 h
[14] = molecular target: T1, Cytochrome P450 1A2 (Homo sapiens, UniProt P05177); assay: Inhibition of CYP1A2 in human liver microsomes; type: ADME, Microsome
T1 sequence (P05177 whole entry): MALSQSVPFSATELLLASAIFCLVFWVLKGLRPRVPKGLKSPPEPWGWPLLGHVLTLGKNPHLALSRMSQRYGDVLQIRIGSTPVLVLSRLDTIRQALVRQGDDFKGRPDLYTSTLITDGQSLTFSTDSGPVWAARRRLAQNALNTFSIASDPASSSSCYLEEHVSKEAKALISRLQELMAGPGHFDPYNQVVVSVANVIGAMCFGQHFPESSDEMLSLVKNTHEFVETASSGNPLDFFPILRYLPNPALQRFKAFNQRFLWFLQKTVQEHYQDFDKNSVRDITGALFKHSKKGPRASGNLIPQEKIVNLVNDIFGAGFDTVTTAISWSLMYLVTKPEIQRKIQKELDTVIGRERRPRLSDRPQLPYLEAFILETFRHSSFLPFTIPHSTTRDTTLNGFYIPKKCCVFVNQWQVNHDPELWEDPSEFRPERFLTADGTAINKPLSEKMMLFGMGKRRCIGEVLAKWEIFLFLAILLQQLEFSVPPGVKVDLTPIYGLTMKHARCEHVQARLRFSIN

[15] = tested on: Salmonella typhimurium; assay: Toxic mutagenic effect in Salmonella Typhimurium TA1535 assessed as increase in reverse mutants at 5 mg/plate segment after 72 hrs at 37 degC in presence of aroclor 1254-induced rat liver S9 fraction by reverse mutation assay relative to untreated control; type: toxicity, organism-based; settings: salmonella enterica subsp. enterica serovar typhimurium, s9, 72 h

Clc1cccc(COc2cncc(N3CCNCC3)n2)c1
half-life [1]: 40 min
half-life [2]: 8 min
fold change (FC) [3]: 3
half-life [4]: > 90 min
half-life at 1 µM [5]: 4 min
fold change (FC) [6]: 3
IC50 [7]: > 50 µM

C[C@H](Cc1cccc(F)c1)Oc1nc(N2CCNC[C@H]2C)ncc1F
half-life [1]: 40 min
Activity [8]: Non-toxic
half-life [2]: 20 min
Activity [9]: Non-toxic
fold change (FC) [10]: 1.34
Activity [11]: Non-toxic
half-life [4]: > 90 min
half-life at 1 µM [5]: 13 min
Activity [12]: Non-toxic
Activity [13]: Non-toxic
IC50 [14]: 0.4 µM
IC50 [7]: 4.9 µM
Activity [15]: Non-toxic
